In patent US11884676B2, “Substituted pyrimido[1,2-b]pyridazines as positive allosteric modulators of the muscarinic acetylcholine receptor M4” (Vanderbilt University, priority 2020, dated 2024) one finds Emax and EC50 data, which are given here for 24 compounds.

For the test, the target named is T1, Human M4 (Homo sapiens, UniProt P08173).
T1 construct: expressed in transfected cells
T1 sequence (P08173 1-479): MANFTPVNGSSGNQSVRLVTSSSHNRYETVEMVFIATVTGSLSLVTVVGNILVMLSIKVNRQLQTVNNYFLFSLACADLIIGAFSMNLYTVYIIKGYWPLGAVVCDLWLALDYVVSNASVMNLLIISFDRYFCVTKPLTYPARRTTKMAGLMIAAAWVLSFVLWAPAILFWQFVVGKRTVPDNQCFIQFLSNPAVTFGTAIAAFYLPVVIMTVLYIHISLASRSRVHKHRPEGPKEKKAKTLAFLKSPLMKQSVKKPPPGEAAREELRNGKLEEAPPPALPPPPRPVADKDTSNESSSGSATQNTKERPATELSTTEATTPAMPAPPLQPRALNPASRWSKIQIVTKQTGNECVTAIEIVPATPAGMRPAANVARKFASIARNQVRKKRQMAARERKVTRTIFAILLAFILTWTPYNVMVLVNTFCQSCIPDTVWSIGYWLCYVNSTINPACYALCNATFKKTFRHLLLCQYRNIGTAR
The experiment in a line: mAChR M4 cell-based functional assay (calcium flux, PAM mode). More on the design: Emax: dose or concentration left out as unconfirmed. Conditions: for Emax at 30 µM: CHO-K1, % ACh maximum at 30 μM; for Emax at 30 µM / EC50: hM4-Gqi5 CHO-K1 cells; for EC50: concentration-dependent increase in the EC20 acetylcholine response. The method, boiled down:
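CHO-K1 cells stably co-expressing human M4 and chimeric Gqi5, Fluo-4 loaded; compound added first (11-point, 1:3 CRC), then EC20 acetylcholine at 144 s and EC80 at 230 s. PAM activity read on FDSS as concentration-dependent increase of EC20 ACh calcium response; EC50 and Emax from four-parameter logistic fit.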

In the case of `[2H]C1([2H])Oc2ccc(OC3CCN(c4nn5c(=O)c(Cl)c(C)nc5cc4C)CC3)cc2OC1([2H])[2H]` [Compound 17, 3-Chloro-7-(4-((2,3-dihydrobenzo[b][1,4]dioxin-6-yl-2,2,3,3-d4)oxy)piperidin-1-yl)-2,8-dimethyl-4H-pyrimido[1,2-b]pyridazin-4-one], the Emax at 30 µM was 91% and the EC50 is 12 nM. In the case of `Cc1cc2nccc(=O)n2nc1N1CC[C@H](Oc2ccc3c(c2)OCCO3)[C@H](F)C1` [Compound 43, 7-((3R,4S)-4-((2,3-dihydrobenzo[b][1,4]dioxin-6-yl)oxy)-3-fluoropiperidin-1-yl)-8-methyl-4H-pyrimido[1,2-b]pyridazin-4-one], the Emax at 30 µM was 69% and the EC50 came to 171 nM.

`[2H]C1([2H])Oc2ccc(O[C@@H]3CCN(c4nn5c(=O)ccnc5c(C)c4C)C[C@@H]3F)cc2OC1([2H])[2H]` [Compound 118, 7-((3S,4R)-4-((2,3-dihydrobenzo[b][1,4]dioxin-6-yl-2,2,3,3-d4)oxy)-3-fluoropiperidin-1-yl)-8,9-dimethyl-4H-pyrimido[1,2-b]pyridazin-4-one]: the Emax at 30 µM stood at 115% and the EC50 was found to be 34 nM. For the compound `CCc1cc(=O)n2nc(N3CCC(Oc4ccc5c(c4)OCCO5)CC3)c(C)c(C)c2n1` [Compound 11, 7-(4-((2,3-Dihydrobenzo[b][1,4]dioxin-6-yl-2,2,3,3-d4)oxy)piperidin-1-yl)-2-ethyl-8,9-dimethyl-4H-pyrimido[1,2-b]pyridazin-4-one], the Emax at 30 µM came out at 99% and the EC50 worked out at 49 nM. Taken in the same sequence, the figures for `[2H]C1([2H])Oc2cc(O[C@H]3CCN(c4nn5c(=O)ccnc5cc4C)[C@H](C)C3)cc(F)c2OC1([2H])[2H]` [Compound 130, 7-((2R,4S)-4-((8-fluoro-2,3-dihydrobenzo[b][1,4]dioxin-6-yl-2,2,3,3-d4)oxy)-2-methylpiperidin-1-yl)-8-methyl-4H-pyrimido[1,2-b]pyridazin-4-one] were 116% and 160 nM. As to `[2H]C1(Oc2ccc3c(c2)OCCO3)CCN(c2nn3c(=O)ccnc3c(C)c2C)CC1` [Compound 70, 7-(4-((2,3-dihydrobenzo[b][1,4]dioxin-6-yl)oxy)piperidin-1-yl-4-d)-8,9-dimethyl-4H-pyrimido[1,2-b]pyridazin-4-one], the Emax at 30 µM stood at 96% and the EC50 came out at 16 nM.

As to `[2H]C1([2H])Oc2ccc(O[C@H]3CCN(c4nn5c(=O)ccnc5c(C)c4C)[C@H](C)C3)cc2OC1([2H])[2H]` [Compound 132, 7-((2R,4S)-4-((2,3-dihydrobenzo[b][1,4]dioxin-6-yl-2,2,3,3-d4)oxy)-2-methylpiperidin-1-yl)-8,9-dimethyl-4H-pyrimido[1,2-b]pyridazin-4-one], the Emax at 30 µM is 107% and the EC50 turned out to be 34 nM.

`[2H]C1([2H])Oc2ccc(O[C@H]3CCN(c4nn5c(=O)ccnc5cc4C)C[C@@H]3F)cc2OC1([2H])[2H]` [Compound 42, 7-((3S,4S)-4-((2,3-dihydrobenzo[b][1,4]dioxin-6-yl-2,2,3,3-d4)oxy)-3-fluoropiperidin-1-yl)-8-methyl-4H-pyrimido[1,2-b]pyridazin-4-one]: the Emax at 30 µM came out at 105% and the EC50 came to 52 nM. In the case of `Cc1cc2nccc(=O)n2nc1N1CC[C@H](Oc2cc(F)c3c(c2)OCCO3)C[C@H]1C` [Compound 131, 7-((2R,4S)-4-((8-fluoro-2,3-dihydrobenzo[b][1,4]dioxin-6-yl)oxy)-2-methylpiperidin-1-yl)-8-methyl-4H-pyrimido[1,2-b]pyridazin-4-one], the Emax at 30 µM was determined as 119% and the EC50 worked out at 203 nM. Consider `[2H]C1(Oc2ccc3c(c2)OCO3)CCN(c2nn3c(=O)cc(C)nc3cc2C)CC1` [Compound 58, 7-(4-(benzo[d][1,3]dioxol-5-yloxy)piperidin-1-yl-4-d)-2,8-dimethyl-4H-pyrimido[1,2-b]pyridazin-4-one], for which the Emax at 30 µM came out at 88% and the EC50 is 52 nM. Regarding `Cc1ccc(OC2CCN(c3nn4c(=O)ccnc4c(C)c3C)CC2)cn1` [Compound 86, 8,9-dimethyl-7-(4-((6-methylpyridin-3-yl)oxy)piperidin-1-yl)-4H-pyrimido[1,2-b]pyridazin-4-one], the Emax at 30 µM amounted to 101% and the EC50 was determined as 341 nM.

Regarding `[2H]C1(Oc2ccc3c(c2)OC([2H])([2H])C([2H])([2H])O3)CCN(c2nn3c(=O)ccnc3cc2C)CC1` [Compound 39, 7-(4-((2,3-dihydrobenzo[b][1,4]dioxin-6-yl-2,2,3,3-d4)oxy)piperidin-1-yl-4-d)-8-methyl-4H-pyrimido[1,2-b]pyridazin-4-one], the Emax at 30 µM was 111% and the EC50 was 115 nM. As to `[2H]C1(Oc2ccc3c(c2)OCCO3)CCN(c2nn3c(=O)cc(C(F)F)nc3cc2C)CC1` [Compound 61, 2-(difluoromethyl)-7-(4-((2,3-dihydrobenzo[b][1,4]dioxin-6-yl)oxy)piperidin-1-yl-4-d)-8-methyl-4H-pyrimido[1,2-b]pyridazin-4-one], the Emax at 30 µM stood at 94% and the EC50 was determined as 12 nM. Turning to `[2H]C1(Oc2ccc3c(c2)OCCCO3)CCN(c2nn3c(=O)cc(C)nc3cc2C)CC1` [Compound 59, 7-(4-((3,4-dihydro-2H-benzo[b][1,4]dioxepin-7-yl)oxy)piperidin-1-yl-4-d)-2,8-dimethyl-4H-pyrimido[1,2-b]pyridazin-4-one], the Emax at 30 µM was found to be 85% and the EC50 stood at 59 nM. Take `Cc1c(N2CCC(Oc3ccc(Cl)cc3)CC2)nn2c(=O)ccnc2c1C` [Compound 87]: the EC50 is 268 nM. Further, the Emax (CHO-K1, read-out: Human M4 Emax (%)*) came to 93%. `Cc1c(N2CCC(Oc3ccc(C(F)(F)F)cc3)CC2)nn2c(=O)cc(C(F)F)nc2c1C` [Compound 81, 2-(difluoromethyl)-8,9-dimethyl-7-(4-(4-(trifluoromethyl)phenoxy)piperidin-1-yl)-4H-pyrimido[1,2-b]pyridazin-4-one]: the Emax at 30 µM was determined as 73% and the EC50 was 2300 nM. Taken in the same sequence, the figures for `Cc1ccc(OC2CCN(c3nn4c(=O)ccnc4cc3C)CC2)cn1` [Compound 24, 8-methyl-7-(4-((6-methylpyridin-3-yl)oxy)piperidin-1-yl)-4H-pyrimido[1,2-b]pyridazin-4-one] were 73% and 782 nM. On to `[2H]C1([2H])Oc2ccc(OC3CCN(c4nn5c(=O)ccnc5c(C)c4C)CC3)cc2OC1([2H])[2H]` [Compound 2, 7-(4-((2,3-Dihydrobenzo[b][1,4]dioxin-6-yl-2,2,3,3-d4)oxy)piperidin-1-yl)-8,9-dimethyl-4H-pyrimido[1,2-b]pyridazin-4-one], for which the Emax at 30 µM was 100% and the EC50 is 26 nM. With `[2H]C1([2H])Oc2ccc(O[C@@H]3CCN(c4nn5c(=O)cc(COC)nc5cc4C)C[C@H]3F)cc2OC1([2H])[2H]` [Compound 125, 7-((3R,4R)-4-((2,3-dihydrobenzo[b][1,4]dioxin-6-yl-2,2,3,3-d4)oxy)-3-fluoropiperidin-1-yl)-2-(methoxymethyl)-8-methyl-4H-pyrimido[1,2-b]pyridazin-4-one], the Emax at 30 µM is 108% and the EC50 was determined as 87 nM. Taken in the same sequence, the figures for `Cc1cc2nccc(=O)n2nc1N1CCC(Oc2ccc3c(c2)OCCO3)CC1` [Compound 26, 7-(4-((2,3-dihydrobenzo[b][1,4]dioxin-6-yl)oxy)piperidin-1-yl)-8-methyl-4H-pyrimido[1,2-b]pyridazin-4-one] were 84% and 66 nM. Taken in the same sequence, the figures for `[2H]C1([2H])Oc2ccc(OC3CCN(c4nn5c(=O)cc(C(F)F)nc5cc4C)CC3)cc2OC1([2H])[2H]` [Compound 8, 2-(Difluoromethyl)-7-(4-((2,3-dihydrobenzo[b][1,4]dioxin-6-yl-2,2,3,3-d4)oxy)piperidin-1-yl)-8-methyl-4H-pyrimido[1,2-b]pyridazin-4-one] were 76% and 19 nM. For `[2H]C1(Oc2ccc3c(c2)OC([2H])([2H])C([2H])([2H])O3)CCN(c2nn3c(=O)c(F)c(C)nc3cc2C)CC1` [Compound 46, 7-(4-((2,3-dihydrobenzo[b][1,4]dioxin-6-yl-2,2,3,3-d4)oxy)piperidin-1-yl-4-d)-3-fluoro-2,8-dimethyl-4H-pyrimido[1,2-b]pyridazin-4-one], in that order: 81% and 22 nM. For the compound `[2H]C1([2H])Oc2ccc(OC3CCN(c4nn5c(=O)c(Cl)cnc5cc4C)CC3)cc2OC1([2H])[2H]` [Compound 23, 3-chloro-7-(4-((2,3-dihydrobenzo[b][1,4]dioxin-6-yl-2,2,3,3-d4)oxy)piperidin-1-yl)-8-methyl-4H-pyrimido[1,2-b]pyridazin-4-one], the Emax at 30 µM worked out at 91% and the EC50 came out at 44 nM. For `Cc1cc2nccc(=O)n2nc1N1CC[C@H](Oc2ccc3c(c2)OCCO3)C[C@H]1C` [Compound 108, 7-((2R,4S)-4-((2,3-Dihydrobenzo[b][1,4]dioxin-6-yl)oxy)-2-methylpiperidin-1-yl)-8-methyl-4H-pyrimido[1,2-b]pyridazin-4-one], the Emax at 30 µM was 99%.
